# In patent publication US7732430B2, “Drug delivery system comprising a tetrahydroxilated estrogen for use in hormonal contraception” (Pantarhei Bioscience B.V., priority 2001, dated 2010):
# Read-outs that look alike come from different tables or passages of the source.
# Legend:
# [1] = molecular target: T1, human sex Hormone Binding Globulin (SHBG) (Homo sapiens, UniProt P04278); test: Competitive steroid-binding assay for human SHBG; conditions: for relative binding affinity for human SHBG: rank order ethinylestradiol < 17β-estradiol < testosterone < 5α-dihydrotestosterone
# T1 construct: Human SHBG was purified from transgenic mouse serum; made in house; host or cells: transgenic mouse (serum)
# T1 sequence (P04278 30-402): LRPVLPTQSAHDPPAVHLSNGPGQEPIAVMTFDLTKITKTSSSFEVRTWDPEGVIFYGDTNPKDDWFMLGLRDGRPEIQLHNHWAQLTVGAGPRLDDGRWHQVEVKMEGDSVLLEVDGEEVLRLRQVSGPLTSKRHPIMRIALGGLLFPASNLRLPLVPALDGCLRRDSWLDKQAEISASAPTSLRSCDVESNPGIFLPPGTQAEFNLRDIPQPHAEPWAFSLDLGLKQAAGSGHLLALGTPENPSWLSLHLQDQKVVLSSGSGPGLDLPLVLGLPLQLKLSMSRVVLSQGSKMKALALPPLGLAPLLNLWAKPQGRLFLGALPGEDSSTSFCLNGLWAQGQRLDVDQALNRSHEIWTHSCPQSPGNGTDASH
# Description: Human SHBG was treated for 30 min at room temperature with a dextran-coated charcoal (DCC) suspension in phosphate buffered saline (PBS) to remove any steroid ligand. After centrifugation (2,000×g for 10 min) to sediment the DCC, the supernatant containing the human SHBG was diluted in PBS to a concentration of 1 nM based on its steroid binding capacity.
# The average amounts of [^3H]labeled ligands bound to SHBG at each concentration of competitor (B) were expressed as a percentage of the average amounts of [^3H]labeled ligands bound to SHBG in the absence of competitor (B0), and were plotted against the concentration of competitor in each assay tube.
# four-day cyclic rats = test: Antiovulatory bioassay after oral administration; assay type: in vivo, rat; conditions: for ED50: Rattus norvegicus, 96 h
# Description: A bioassay method (modified according to De Visser et al., 1984, Arzneim. […].
# Rats are spontaneously ovulating, polyestrous mammals. Generally, proestrus lasts for 12 to 14 hours, estrus for 25 to 27 hours, metestrus for 6 to 8 hours, and diestrus for 55 to 57 hours (Freeman, 1988, In: The Physiology of Reproduction, E Knobil and J Neill (eds). Raven Press, Ltd, New York, pp. 1893-1928). These stages of the estrous cycle can be classified based on the cell types present in daily vaginal smears (Schwartz, 1969, Recent Prog. Horm. Res. 25, 1-55).
# The preovulatory period of the rat estrous cycle is characterized by ovarian follicular growth and enhanced estrogen secretion. In the four-day cyclic rat, peripheral plasma levels of E2 are basal through estrus. At the end of metestrus and extending through early diestrus, plasma levels of E2 begin to rise. This increase continues through diestrus and early proestrus to reach peak values and plateau by mid-proestrus. Subsequently, E2 levels fall rapidly, reaching basal values by the early morning hours of estrus. The rising estrogen levels from late metestrus to early proestrus exert a positive feedback effect on the hypothalamic-pituitary axis resulting in a luteinizing hormone (LH) surge on the afternoon of proestrus. The LH surge induces follicular rupture and the release of ova in the early morning hours of estrus. By early afternoon on the day of estrus, ova are present in the ampulla of the oviduct and are readily visualized under a dissecting microscope.
# Progesterone or levonorgestrel administered subcutaneously on diestrus to four-day cyclic rats is known to inhibit ovulation and increased the estrous cycle length in a dose-dependent manner (Beattie and Corbin, 1975, Endocrinology 97, 885-890). It was shown that the progestational block of ovulation takes place predominately via the hypothalamic-pituitary axis.
# Vaginal smears from female rats were obtained daily for two weeks to identify four-day cycling rats. Only four-day cyclic rats were used for the antiovulatory bioassay. […] Twice daily dosing continued for an additional 3 consecutive days. One day after the final dose (day 5), the rats were euthanized by CO2 asphyxiation at approximately 1 pm, and the number of ova per oviduct was determined and recorded. Group means were calculated for the number of ova per ovulated rat (both oviducts). The ratio of rats ovulating for each treatment group was compared to the ratio for the vehicle-treated rats.
# immature rat uterus = conditions: subcutaneous, cited from earlier work
# [2] = intravenous, two adult women, tritium labeled; cited from earlier work
# [3] = molecular target: T2, rat uterine nuclear estrogen receptor (Rattus norvegicus, UniProt P06211); conditions: cited from earlier work
# T2 construct: rat uterine cytosol estrogen receptor; host or cells: rat uterus (cytosol and nuclear fractions)
# T2 sequence (P06211 1-600): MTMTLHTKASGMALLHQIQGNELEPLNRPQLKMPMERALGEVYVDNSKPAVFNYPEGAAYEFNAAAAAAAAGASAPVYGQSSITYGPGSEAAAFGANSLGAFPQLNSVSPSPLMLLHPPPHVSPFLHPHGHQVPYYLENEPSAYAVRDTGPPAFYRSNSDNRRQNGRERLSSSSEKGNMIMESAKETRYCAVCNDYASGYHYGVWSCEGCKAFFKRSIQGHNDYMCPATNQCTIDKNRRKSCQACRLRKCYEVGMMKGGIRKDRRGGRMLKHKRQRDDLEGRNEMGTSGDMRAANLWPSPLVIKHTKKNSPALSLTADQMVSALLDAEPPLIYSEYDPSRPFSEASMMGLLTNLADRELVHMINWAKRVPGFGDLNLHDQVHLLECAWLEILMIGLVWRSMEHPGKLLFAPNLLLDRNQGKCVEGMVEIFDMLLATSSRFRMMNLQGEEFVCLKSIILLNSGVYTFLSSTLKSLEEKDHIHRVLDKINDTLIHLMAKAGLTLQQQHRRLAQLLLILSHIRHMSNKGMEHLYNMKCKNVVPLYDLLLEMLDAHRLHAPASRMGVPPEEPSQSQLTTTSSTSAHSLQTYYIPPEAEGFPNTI
# nonpregnant ewes = conditions: intravenously administered; cited from earlier work
# [4] = tested on: ovariectomized adult rats; test: Vaginal cornification bioassay after oral administration; assay type: in vivo, rat; conditions: 0.1 and 0.3 mg/kg/day po
# Description: Uterine weight increase in the rat is more commonly used as a measure of estrogenicity. […] In the early 1920s it was discovered that follicular fluid from the pig ovary contained a factor(s) that caused cornification/keratinization of the vaginal epithelium in the rat (Allen and Doisy, 1923, JAMA, 81, 819-821; Allen and Doisy, 1924, Am. J. Physiol., 69, 577-588). The so-called vaginal cornification response in rats subsequently provided a bioassay for testing estrogenicity. Vaginal epithelial cornification/keratinization in ovariectomized rats can be produced only by compounds considered to be true estrogens (Jones et al, 1973, Fert. Steril. 24, 284-291). […] Adult intact female CD rats were ovariectomized to induce estrogen deficiency. […] Castrate vaginal smears are indicative that complete ovariectomy was achieved. Treatment commenced following completion of the 7 days of smearing (day 0=first day of dosing). Animals were dosed, once daily for 7 consecutive days. Daily vaginal lavages continued to be obtained for 7 days after dosing was initiated in order to detect vaginal cornification, as an indication of an estrogenic response. A drop of vaginal washings was placed on a glass slide and examined by light microscopy to detect the presence or absence of cornified epithelial cells. Vaginal lavages were obtained prior to dosing on days 0-6 and prior to necropsy on day 7. […]
# [5] = molecular target: T3, estrogen receptors in the human endometrium (Homo sapiens, UniProt P03372); conditions: Tseng et al. 1978; cited from earlier work
# T3 construct: estrogen receptors in the human endometrium; host or cells: human endometrium (nuclei)
# T3 sequence (P03372 1-595): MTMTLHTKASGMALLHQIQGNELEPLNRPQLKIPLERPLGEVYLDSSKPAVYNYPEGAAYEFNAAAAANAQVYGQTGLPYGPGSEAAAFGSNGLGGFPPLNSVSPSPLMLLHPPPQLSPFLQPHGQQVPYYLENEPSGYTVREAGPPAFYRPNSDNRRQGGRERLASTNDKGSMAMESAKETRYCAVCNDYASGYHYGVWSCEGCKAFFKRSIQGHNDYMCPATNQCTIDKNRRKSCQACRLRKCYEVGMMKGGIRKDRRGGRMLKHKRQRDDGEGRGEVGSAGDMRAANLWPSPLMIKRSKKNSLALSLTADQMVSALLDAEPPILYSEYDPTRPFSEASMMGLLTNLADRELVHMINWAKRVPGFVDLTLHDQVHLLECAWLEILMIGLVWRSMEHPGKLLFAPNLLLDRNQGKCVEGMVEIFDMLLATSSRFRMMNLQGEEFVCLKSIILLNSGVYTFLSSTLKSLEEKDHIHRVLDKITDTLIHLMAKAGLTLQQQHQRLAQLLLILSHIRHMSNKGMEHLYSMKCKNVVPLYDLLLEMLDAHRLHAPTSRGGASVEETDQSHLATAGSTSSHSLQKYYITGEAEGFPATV
# [6] = molecular target: T4, rat uterine cytosol estrogen receptor (Rattus norvegicus, UniProt P06211); conditions: cited from earlier work
# T4 construct: rat uterine cytosol estrogen receptor; host or cells: rat uterus (cytosol and nuclear fractions)
# T4 sequence (P06211 1-600): T2 sequence (P06211 1-600)
# [7] = tested on: human breast cancer cells (MCF-7); conditions: MCF-7, long term tissue culture; cited from earlier work
# [8] = 30 μg/kg po twice daily for 4 days
# [9] = 100 μg/kg po twice daily for 4 days
# [10] = 300 μg/kg po twice daily for 4 days
# [11] = 1000 μg/kg po twice daily for 4 days
# [12] = 3000 μg/kg po twice daily for 4 days
SMILES,relative binding affinity for human SHBG [1],ED50 (four-day cyclic rats; po twice daily for 4 days) [mg/kg],ovulation blocked (rats of 8) (four-day cyclic rats; [8]),ovulation blocked (rats of 8) (four-day cyclic rats; [9]),ovulation blocked (rats of 8) (four-day cyclic rats; [10]),ovulation blocked (rats of 8) (four-day cyclic rats; [11]),ovulation blocked (rats of 8) (four-day cyclic rats; [12]),also measured
"C[C@]12CC[C@H]3[C@@H](CCC4=CC(=O)CC[C@@]43C)[C@@H]1CC[C@@H]2O [testosterone, reference compound]","in this order, show an increased relative binding affinity",,,,,,,
"C#C[C@]1(O)CC[C@H]2[C@@H]3CCc4cc(O)ccc4[C@H]3CC[C@@]21C [EE, 17α-ethinyl estradiol, reference compound]",,0.01,,,,,,
"C[C@]12CC[C@@H]3c4ccc(O)cc4CC[C@H]3[C@@H]1[C@@H](O)[C@@H](O)[C@@H]2O [estetrol, 1,3,5(10)-estratrien-3,15α,16α,17β-tetrol]",negligible,0.182,failed to inhibit ovulation,2 of 8,5 of 8,7 of 8,8 of 8,"binding to human SHBG ([1]; [3H]DHT as labeled ligand): does not bind at all; binding to human SHBG ([1]; [3H]estradiol as labeled ligand): does not bind at all; uterotrophic activity (immature rat uterus; Holinka et al. 1979): very weak uterotrophic activity; uterotrophic activity (immature rat uterus; Holinka et al. 1980): very weak uterotrophic activity; excretion [2]: rapidly and completely excreted in urine as the glucosiduronate; metabolism [2]: virtually no metabolism except for conjugation; relative binding affinity, 17β-estradiol = 100% [3]: 0.3%; potency in uterine vasodilation, times less potent than estriol and 17β-estradiol (nonpregnant ewes): 15 to 30 times; onset of vaginal cornification (animals responding at days 1-3) [4]: as fast as in EE-treated animals; relative binding, % of 17β-estradiol [5]: 1.5%; relative binding affinity, 17β-estradiol = 100% [6]: 0.5%; agonistic potency relative to 17β-estradiol in cell proliferation [7]: 2%; antiovulatory potency compared with E2 (four-day cyclic rats; po twice daily for 4 days): approximates the antiovulatory potency of E2; antiovulatory potency, times less potent than ethinylestradiol (four-day cyclic rats; po twice daily for 4 days): 18 times"
"C[C@]12CC[C@@H]3c4ccc(O)cc4CC[C@H]3[C@@H]1CC[C@@H]2O [E2, 17β-estradiol, reference compound]",,0.03 to 0.1,ineffective in inhibiting ovulation,7 of 8,8 of 8,8 of 8,8 of 8,
"C[C@]12CCC(=O)C[C@@H]1CC[C@@H]1[C@@H]2CC[C@]2(C)[C@@H](O)CC[C@@H]12 [5α-dihydrotestosterone, reference compound]","in this order, show an increased relative binding affinity",,,,,,,
